The values that follow come from ChEMBL document CHEMBL1201862, “PubChem BioAssay data set” (2004).

Assay [1] in a line: viability of PTEN-deleted HCT116 cells – cell-based, HCT116 PTEN knockout, dose response (AID 1047).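 Also: HCT116 colon tumor cells with PTEN knocked out; cells exposed to compound for 60 hours before readout; potency for loss of cell viability measured by luminescence.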 It is filed as functional.
Assay [2] has as its target T1, Sentrin-specific protease 6 (Homo sapiens, UniProt Q9GZR1).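 Also: Luminescence-based dose-response confirmatory assay of SENP6 inhibition, following up an ultra-high-throughput screen.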
T1 sequence (Q9GZR1 whole entry): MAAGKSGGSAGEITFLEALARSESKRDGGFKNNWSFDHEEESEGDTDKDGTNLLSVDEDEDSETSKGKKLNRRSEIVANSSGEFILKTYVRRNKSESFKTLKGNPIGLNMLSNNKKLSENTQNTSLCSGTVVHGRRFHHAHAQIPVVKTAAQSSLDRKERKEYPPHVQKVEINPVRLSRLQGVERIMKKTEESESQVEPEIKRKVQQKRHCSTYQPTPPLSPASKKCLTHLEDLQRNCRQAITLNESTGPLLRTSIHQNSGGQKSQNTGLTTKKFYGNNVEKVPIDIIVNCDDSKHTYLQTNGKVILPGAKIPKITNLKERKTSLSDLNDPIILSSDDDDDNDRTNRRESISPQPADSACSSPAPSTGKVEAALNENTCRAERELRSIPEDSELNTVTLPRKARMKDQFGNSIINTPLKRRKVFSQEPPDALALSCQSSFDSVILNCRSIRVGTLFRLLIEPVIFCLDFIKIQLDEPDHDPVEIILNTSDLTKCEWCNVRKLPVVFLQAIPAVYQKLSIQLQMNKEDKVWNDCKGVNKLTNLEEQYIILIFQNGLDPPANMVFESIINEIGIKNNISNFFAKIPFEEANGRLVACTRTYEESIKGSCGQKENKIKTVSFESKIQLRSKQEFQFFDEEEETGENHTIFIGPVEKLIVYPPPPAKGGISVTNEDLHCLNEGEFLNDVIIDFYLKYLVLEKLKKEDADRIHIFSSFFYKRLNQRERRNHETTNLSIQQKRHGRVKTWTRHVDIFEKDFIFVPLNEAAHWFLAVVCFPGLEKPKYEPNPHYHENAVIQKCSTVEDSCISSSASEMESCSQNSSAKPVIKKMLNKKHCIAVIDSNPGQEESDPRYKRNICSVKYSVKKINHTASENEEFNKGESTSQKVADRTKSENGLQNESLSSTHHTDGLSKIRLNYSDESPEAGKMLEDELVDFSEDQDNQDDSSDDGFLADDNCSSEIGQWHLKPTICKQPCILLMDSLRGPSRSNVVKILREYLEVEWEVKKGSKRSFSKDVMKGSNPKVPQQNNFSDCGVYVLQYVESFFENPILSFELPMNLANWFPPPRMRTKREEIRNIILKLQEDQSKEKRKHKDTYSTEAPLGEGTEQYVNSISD
The assay is classed as functional.

The target of assay [3] is T2, Histone-lysine N-methyltransferase NSD2 (Homo sapiens, UniProt O96028).
T2 sequence (O96028 whole entry): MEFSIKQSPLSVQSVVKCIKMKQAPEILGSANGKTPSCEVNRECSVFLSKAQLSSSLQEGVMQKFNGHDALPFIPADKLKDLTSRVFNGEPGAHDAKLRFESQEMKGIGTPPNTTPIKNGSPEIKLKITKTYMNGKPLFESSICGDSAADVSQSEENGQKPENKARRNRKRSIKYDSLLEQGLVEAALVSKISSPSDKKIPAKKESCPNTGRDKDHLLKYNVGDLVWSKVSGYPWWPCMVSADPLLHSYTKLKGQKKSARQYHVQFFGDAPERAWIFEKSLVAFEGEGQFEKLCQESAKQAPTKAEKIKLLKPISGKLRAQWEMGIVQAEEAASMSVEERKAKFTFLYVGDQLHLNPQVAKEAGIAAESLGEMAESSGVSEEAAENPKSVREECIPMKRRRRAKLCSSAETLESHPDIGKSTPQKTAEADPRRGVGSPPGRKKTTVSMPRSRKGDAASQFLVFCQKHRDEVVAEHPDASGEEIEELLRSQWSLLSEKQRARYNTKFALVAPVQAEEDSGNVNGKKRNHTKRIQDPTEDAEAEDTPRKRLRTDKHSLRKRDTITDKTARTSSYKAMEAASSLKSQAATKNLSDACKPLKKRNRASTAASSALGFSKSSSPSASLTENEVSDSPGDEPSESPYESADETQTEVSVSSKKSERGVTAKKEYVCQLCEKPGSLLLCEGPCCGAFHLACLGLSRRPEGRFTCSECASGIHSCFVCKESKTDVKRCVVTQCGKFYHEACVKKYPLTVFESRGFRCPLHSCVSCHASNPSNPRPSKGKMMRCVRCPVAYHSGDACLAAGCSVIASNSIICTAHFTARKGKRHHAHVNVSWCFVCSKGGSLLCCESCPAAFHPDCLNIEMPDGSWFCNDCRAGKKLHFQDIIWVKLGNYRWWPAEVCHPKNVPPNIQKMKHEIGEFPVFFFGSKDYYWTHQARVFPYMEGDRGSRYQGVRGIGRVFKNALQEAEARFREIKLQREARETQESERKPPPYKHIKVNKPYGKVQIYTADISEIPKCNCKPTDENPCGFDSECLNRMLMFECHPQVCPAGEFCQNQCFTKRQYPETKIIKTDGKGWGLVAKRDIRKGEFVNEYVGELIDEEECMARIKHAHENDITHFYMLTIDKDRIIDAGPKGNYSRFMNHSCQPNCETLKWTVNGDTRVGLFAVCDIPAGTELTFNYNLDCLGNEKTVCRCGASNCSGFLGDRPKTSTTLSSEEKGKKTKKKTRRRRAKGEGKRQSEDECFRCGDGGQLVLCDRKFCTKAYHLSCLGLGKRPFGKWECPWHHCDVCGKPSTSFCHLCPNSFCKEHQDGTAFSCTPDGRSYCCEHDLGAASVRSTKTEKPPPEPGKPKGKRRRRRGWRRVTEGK
The assay is classed as biochemical.

In assay [4] the target is Genome polyprotein (dengue virus type 2, UniProt P29990). Description: flavivirus cap methylation enzyme inhibition – biochemical, confirmation dose response, primary screen (AID 588689). It is filed as functional.
Assay [5] addresses T3, Zinc finger protein mex-5 (Caenorhabditis elegans, UniProt Q9XUB2).
T3 sequence (Q9XUB2 whole entry): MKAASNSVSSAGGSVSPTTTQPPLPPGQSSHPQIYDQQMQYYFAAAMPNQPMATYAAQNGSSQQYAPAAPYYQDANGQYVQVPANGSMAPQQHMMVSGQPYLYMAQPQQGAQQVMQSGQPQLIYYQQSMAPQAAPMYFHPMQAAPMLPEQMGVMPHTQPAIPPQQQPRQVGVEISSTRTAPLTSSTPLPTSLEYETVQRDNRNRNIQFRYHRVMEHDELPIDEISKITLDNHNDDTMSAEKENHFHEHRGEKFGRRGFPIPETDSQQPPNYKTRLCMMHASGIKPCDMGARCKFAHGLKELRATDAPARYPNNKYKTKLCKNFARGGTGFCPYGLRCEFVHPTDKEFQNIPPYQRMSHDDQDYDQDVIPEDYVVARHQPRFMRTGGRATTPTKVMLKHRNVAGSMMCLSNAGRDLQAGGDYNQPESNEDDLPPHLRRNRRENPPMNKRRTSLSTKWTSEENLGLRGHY
Description: potency of MEX-5 RNA-binding blockers – biochemical, C. elegans, fluorescence polarization, dose response (AID 1960). For orientation: Fluorescence polarisation rises when a labelled molecule tumbles more slowly, as on binding a larger partner.

Assay [6] addresses Mitochondrial peptide methionine sulfoxide reductase (Bos taurus, UniProt P54149). It is filed as functional.

Activity calls are given as the source filed them.

Sequence of Mitochondrial peptide methionine sulfoxide reductase (P54149 whole entry): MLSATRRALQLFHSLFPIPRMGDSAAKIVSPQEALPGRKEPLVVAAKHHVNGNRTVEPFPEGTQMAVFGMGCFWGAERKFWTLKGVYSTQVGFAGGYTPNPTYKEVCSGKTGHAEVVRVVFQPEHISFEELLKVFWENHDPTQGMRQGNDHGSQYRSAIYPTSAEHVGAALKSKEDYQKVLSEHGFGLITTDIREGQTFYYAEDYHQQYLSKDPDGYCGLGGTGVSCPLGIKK
Sequence of Genome polyprotein (P29990 2492-3391 limits assumed): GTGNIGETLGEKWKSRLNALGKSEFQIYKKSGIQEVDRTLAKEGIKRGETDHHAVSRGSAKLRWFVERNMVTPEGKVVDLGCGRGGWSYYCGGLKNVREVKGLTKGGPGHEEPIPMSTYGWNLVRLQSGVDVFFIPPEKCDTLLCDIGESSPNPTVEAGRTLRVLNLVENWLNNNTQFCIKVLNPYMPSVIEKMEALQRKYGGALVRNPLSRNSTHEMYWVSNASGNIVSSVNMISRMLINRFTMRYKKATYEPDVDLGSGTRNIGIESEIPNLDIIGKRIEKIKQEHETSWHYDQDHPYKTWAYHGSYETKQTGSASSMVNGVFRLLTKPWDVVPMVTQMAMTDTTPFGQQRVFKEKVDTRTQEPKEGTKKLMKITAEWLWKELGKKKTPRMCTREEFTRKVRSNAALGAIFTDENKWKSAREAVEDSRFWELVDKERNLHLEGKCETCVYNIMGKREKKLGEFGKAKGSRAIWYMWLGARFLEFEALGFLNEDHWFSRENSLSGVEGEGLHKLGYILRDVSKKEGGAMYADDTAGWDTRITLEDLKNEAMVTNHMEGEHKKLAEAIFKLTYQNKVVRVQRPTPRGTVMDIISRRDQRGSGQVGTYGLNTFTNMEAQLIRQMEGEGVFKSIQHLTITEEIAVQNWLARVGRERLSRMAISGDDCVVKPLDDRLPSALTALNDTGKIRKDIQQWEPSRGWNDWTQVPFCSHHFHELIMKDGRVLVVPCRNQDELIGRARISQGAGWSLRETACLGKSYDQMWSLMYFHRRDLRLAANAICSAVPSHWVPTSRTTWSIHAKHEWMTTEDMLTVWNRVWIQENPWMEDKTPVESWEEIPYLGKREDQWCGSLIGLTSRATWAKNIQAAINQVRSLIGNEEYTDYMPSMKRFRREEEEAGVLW

For the compound `Cc1ccc(NC2=CC(=O)C(=O)c3ccccc32)cc1`, in assay [1], the half-maximal effective concentration (EC50) is 6.79 µM (active). Also, in assay [2], the IC50 is 13.5 µM (active). Besides, the AC50 in assay [3] is 13 µM (active).

Turning to `O=C(O)c1ccc(S(=O)(=O)/N=C2\C=C(Nc3ccccc3F)C(=O)c3ccccc32)cc1`, the half-maximal inhibitory concentration (IC50) in assay [4] is 11.2 µM (active); in assay [6], 14.2 µM (inactive). Besides, the EC50 in assay [5] is 60.8 µM (active).

As usually defined, the EC50 is the concentration that produces a half-maximal response. The IC50 is the concentration needed to halve the response being measured. A word on the AC50: it is the concentration at which the activity in the assay is half-maximal.
